Laboratory results published in patent US11802120B2, “Fused cyclic urea derivatives as CRHR2 antagonist” (RaQualia Pharma Inc., priority 2018, dated 2023).

biological target: T1, human CRHR2-alpha (Homo sapiens, UniProt Q13324); assay: cAMP functional assay for human CRHR2 (LANCE Ultra cAMP, TR-FRET); format: cell-based; conditions: CHO-K1 cells expressing human CRHR2-alpha, agonist human urocortin2 at EC80, cAMP; read-out: IC50 against CRHR2
T1 sequence (Q13324 1-411): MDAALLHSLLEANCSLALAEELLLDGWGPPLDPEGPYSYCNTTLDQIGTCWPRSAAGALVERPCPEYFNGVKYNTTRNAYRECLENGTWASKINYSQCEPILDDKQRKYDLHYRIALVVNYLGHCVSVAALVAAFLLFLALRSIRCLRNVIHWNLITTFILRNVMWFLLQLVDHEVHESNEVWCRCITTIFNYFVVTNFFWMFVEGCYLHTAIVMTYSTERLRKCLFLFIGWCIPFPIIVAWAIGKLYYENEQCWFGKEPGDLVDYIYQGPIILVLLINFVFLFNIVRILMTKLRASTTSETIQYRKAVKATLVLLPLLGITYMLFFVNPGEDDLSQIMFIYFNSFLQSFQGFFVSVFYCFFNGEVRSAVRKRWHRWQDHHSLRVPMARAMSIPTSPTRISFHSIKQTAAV
How it was run: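 Antagonism measured in CHO-K1 cells stably expressing the receptor, serum-starved 7 h then cryopreserved. Thawed cells in HBSS buffer with 0.1% BSA, 0.5 mM IBMX, 5 mM Hepes pH 7.4 were preincubated with compound 30 min at 25° C, then stimulated 30 min with EC80 agonist: urocortin2 for CRHR2, CRF for CRHR1.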

IC50, < 0.3 µM:
Cc1ccc(-n2c(=O)n(C[C@H]3CC[C@H](NC(=O)c4cc(Cl)cnc4C(F)F)CC3)c3cccnc32)cc1 [Example 389, 5-chloro-2-(difluoromethyl)-N-((1r,4r)-4-((2-oxo-3-(p-tolyl)-2,3-dihydro-1H-imidazo[4,5-b]pyridin-1-yl)methyl)cyclohexyl)nicotinamide]
CNC(=O)c1cc(C)c(-n2c(=O)n(C[C@H]3CC[C@H](NC(=O)c4cc(Cl)cnc4C(F)F)CC3)c3ccccc32)cn1 [Example 363, 5-(3-(((1r,4r)-4-(5-chloro-2-(difluoromethyl)nicotinamido)cyclohexyl)methyl)-2-oxo-2,3-dihydro-1H-benzo[d]imidazol-1-yl)-N,4-dimethylpicolinamide]
CNc1cc(-n2c(=O)n(C[C@H]3CC[C@H](NC(=O)c4cc(Cl)cnc4C)CC3)c3ccccc32)ccn1 [Example 573, 5-chloro-2-methyl-N-((1r,4r)-4-((3-(2-(methylamino)pyridin-4-yl)-2-oxo-2,3-dihydro-1H-benzo[d]imidazol-1-yl)methyl)cyclohexyl)nicotinamide]
CNc1ncc(-n2c(=O)n(C[C@H]3CC[C@H](NC(=O)c4cc(Cl)cnc4C(F)(F)F)CC3)c3ccccc32)cc1C [Example 544, 5-chloro-N-((1r,4r)-4-((3-(5-methyl-6-(methylamino)pyridin-3-yl)-2-oxo-2,3-dihydro-1H-benzo[d]imidazol-1-yl)methyl)cyclo-hexyl)-2-(trifluoromethyl) nicotinamide]
Cc1ncc(Cl)cc1C(=O)N[C@H]1CC[C@H](Cn2c(=O)n(-c3ccc(C=O)cc3C#N)c3ccccc32)CC1 [Example 306, 5-chloro-N-((1r,4r)-4-((3-(2-cyano-4-formylphenyl)-2-oxo-2,3-dihydro-1H-benzo[d]imidazol-1-yl)methyl)cyclo-hexyl)-2-methylnicotinamide]
Cc1ncc(Cl)cc1C(=O)N[C@H]1CC[C@H](Cn2c(=O)n(-c3cnc4c(c3)c(C)cn4C)c3ccccc32)CC1 [Example 409, 5-chloro-N-((1r,4r)-4-((3-(1,3-dimethyl-1H-pyrrolo[2,3-b]pyridin-5-yl)-2-oxo-2,3-dihydro-1H-benzo[d]imidazol-1-yl)methyl)cyclohexyl)-2-methylnicotinamide]
O=C(N[C@H]1CC[C@H](Cn2c(=O)n(-c3ccc4cncn4c3)c3ccccc32)CC1)c1cc(Cl)cnc1C(F)(F)F [Example 327, 5-chloro-N-((1r,4r)-4-((3-(imidazo[1,5-a]pyridin-6-yl)-2-oxo-2,3-dihydro-1H-benzo[d]imidazol-1-yl)methyl)cyclohexyl)-2-(trifluoromethyl)nicotinamide]
Cc1ccc(-n2c(=O)n(C[C@H]3CC[C@H](NC(=O)c4cc(Cl)ccc4Cl)CC3)c3ccccc32)cn1 [Example 269, 2,5-dichloro-N-((1r,4r)-4-((3-(6-methylpyridin-3-yl)-2-oxo-2,3-dihydro-1H-benzo[d]imidazol-1-yl)methyl)cyclohexyl)benzamide]
Cc1ncc(Cl)cc1C(=O)N[C@H]1CC[C@H](Cn2c(=O)n(-c3cnc4c(c3)OCC(=O)N4)c3ccccc32)CC1 [Example 224, 5-chloro-2-methyl-N-((1r,4r)-4-((2-oxo-3-(3-oxo-3,4-dihydro-2H-pyrido[3,2-b][1,4]oxazin-7-yl)-2,3-dihydro-1H-benzo[d]imidazol-1-yl)methyl)cyclohexyl)nicotinamide]
O=C(N[C@H]1CC[C@H](Cn2c(=O)n(-c3ccccc3Cl)c3cccnc32)CC1)c1cc(Cl)cnc1C(F)F [Example 630, 5-chloro-N-((1r,4r)-4-((1-(2-chlorophenyl)-2-oxo-1H-imidazo[4,5-b]pyridin-3(2H)-yl)methyl)cyclohexyl)-2-(difluoromethyl)nicotinamide]
Cc1ncc(Cl)cc1C(=O)N[C@H]1CC[C@H](Cn2c(=O)n(-c3ccccc3F)c3ccccc32)CC1 [Example 33, 5-chloro-N-((1r,4r)-4-((3-(2-fluorophenyl)-2-oxo-2,3-dihydro-1H-benzo[d]imidazol-1-yl)methyl)cyclohexyl)-2-methylnicotinamide]
CCc1ccc(-n2c(=O)n(C[C@H]3CC[C@H](NC(=O)c4cc(Cl)cnc4C)CC3)c3ccccc32)cn1 [Example 72, 5-chloro-N-((1r,4r)-4-((3-(6-ethylpyridin-3-yl)-2-oxo-2,3-dihydro-1H-benzo[d]imidazol-1-yl)methyl)cyclohexyl)-2-methylnicotinamide]
Cc1ccc(-n2c(=O)n(C[C@H]3CC[C@H](NC(=O)c4cc(Cl)cnc4C(F)(F)F)CC3)c3ccccc32)cn1 [Example 265, 5-chloro-N-((1r,4r)-4-((3-(6-methylpyridin-3-yl)-2-oxo-2,3-dihydro-1H-benzo [d]imidazol-1-yl)methyl)cyclohexyl)-2-(trifluoro-methyl)nicotinamide]
C=Cc1cc(-n2c(=O)n(C[C@H]3CC[C@H](NC(=O)c4cc(Cl)cnc4C)CC3)c3ccccc32)ccn1 [Example 82, 5-chloro-2-methyl-N-((1r,4r)-4-((2-oxo-3-(2-vinylpyridin-4-yl)-2,3-dihydro-1H-benzo [d]imidazol-1-yl)methyl)cyclohexyl)nicotinamide]
Cc1ncc(Cl)cc1C(=O)N[C@H]1CC[C@H](Cn2c(=O)n(-c3ccc4c(c3)nnn4C3COC3)c3ccccc32)CC1 [Example 341, 5-chloro-2-methyl-N-((1r,4r)-4-((3-(1-(oxetan-3-yl)-1H-benzo[d][1,2,3]triazol-5-yl)-2-oxo-2,3-dihydro-1H-benzo[d]imidazol-1-yl)methyl)cyclohexyl)nicotinamide]
Cc1ncc(Cl)cc1C(=O)N[C@H]1CC[C@H](Cn2c(=O)n(-c3ccc4c(c3)CCC4)c3ncccc32)CC1 [Example 189, 5-chloro-N-((1r,4r)-4-((3-(2,3-dihydro-1H-inden-5-yl)-2-oxo-2,3-dihydro-1H-imidazo[4,5-b]pyridin-1-yl)methyl)cyclohexyl)-2-methylnicotinamide]
Cc1ncc(Cl)cc1C(=O)N[C@H]1CC[C@H](Cn2c(=O)n(-c3ccccc3[N+](=O)[O-])c3ccccc32)CC1 [Example 233, 5-chloro-2-methyl-N-((1r,4r)-4-((3-(2-nitrophenyl)-2-oxo-2,3-dihydro-1H-benzo[d]imidazol-1-yl)methyl)cyclo-hexyl)nicotinamide]
O=C(N[C@H]1CC[C@H](Cn2c(=O)n(-c3ccc(N4CCNC4=O)nc3)c3ccccc32)CC1)c1cc(Cl)cnc1C(F)(F)F [Example 640, 5-chloro-N-((1r,4r)-4-((2-oxo-3-(6-(2-oxoimidazolidin-1-yl)pyridin-3-yl)-2,3-dihydro-1H-benzo[d]imidazol-1-yl)methyl)cyclohexyl)-2-(trifluoromethyl) nicotinamide]
COc1ccccc1C(=O)Cn1c(=O)n(C[C@H]2CC[C@H](NC(=O)c3cc(Cl)cnc3C)CC2)c2ccccc21 [Example 10, 5-chloro-N-((1r,4r)-4-((3-(2-(2-methoxyphenyl)-2-oxoethyl)-2-oxo-2,3-dihydro-1H-benzo[d]imidazol-1-yl)methyl)cyclohexyl)-2-methylnicotinamide]
Cc1nccc(-n2c(=O)n(C[C@H]3CC[C@H](NC(=O)c4cc(Cl)cnc4C(F)F)CC3)c3ccccc32)c1C [Example 364, 5-chloro-2-(difluoromethyl)-N-((1r,4r)-4-((3-(2,3-dimethyl-pyridin-4-yl)-2-oxo-2,3-dihydro-1H-benzo[d]imidazol-1-yl)methyl)cyclohexyl)nicotinamide]
O=C(N[C@H]1CC[C@H](Cn2c(=O)n(-c3cccc4cccnc34)c3ccccc32)CC1)c1cc(Cl)cnc1C(F)(F)F [Example 353, 5-chloro-N-((1r,4r)-4-((2-oxo-3-(quinolin-8-yl)-2,3-dihydro-1H-benzo[d]imidazol-1-yl)methyl)cyclo-hexyl)-2-(trifluoromethyl) nicotinamide]
COCCOc1ccc(-n2c(=O)n(C[C@H]3CC[C@H](NC(=O)c4cc(Cl)cnc4C(F)(F)F)CC3)c3ccccc32)cn1 [Example 416, 5-chloro-N-((1r,4r)-4-((3-(6-(2-methoxyethoxy)pyridin-3-yl)-2-oxo-2,3-dihydro-1H-benzo [d]imidazol-1-yl)methyl)cyclo-hexyl)-2-(trifluoromethyl) nicotinamide]
CNc1cnc(-n2c(=O)n(C[C@H]3CC[C@H](NC(=O)c4cc(Cl)cnc4C(F)(F)F)CC3)c3ccccc32)cn1 [Example 298, 5-chloro-N-((1r,4r)-4-((3-(5-(methylamino)pyrazin-2-yl)-2-oxo-2,3-dihydro-1H-benzo[d]imidazol-1-yl)methyl)cyclo-hexyl)-2-(trifluoromethyl) nicotinamide]
CN(CCO)c1ccc(-n2c(=O)n(C[C@H]3CC[C@H](NC(=O)c4cc(Cl)cnc4C(F)F)CC3)c3ccccc32)cn1 [Example 382, 5-chloro-2-(difluoromethyl)-N-((1r,4r)-4-((3-(6-((2-hydroxyethyl)(methyl)amino)pyridin-3-yl)-2-oxo-2,3-dihydro-1H-benzo[d]imidazol-1-yl)methyl)cyclohexyl)nicotinamide]
